Experimental data reported in ChEMBL document CHEMBL1909046, “DrugMatrix in vitro pharmacology data”.

What was measured:
D(1A) dopamine receptor = D(1A) dopamine receptor (Homo sapiens, UniProt P21728); experiment: DRUGMATRIX: Dopamine D1 radioligand binding (ligand: [3H] SCH-23390); type: cell membranes, CHO, Membrane; settings: cho; Not Active = under 50% inhibition at 10 µM
[1] = molecular target: T1, 5-hydroxytryptamine receptor 2C (Homo sapiens, UniProt P28335); experiment: DRUGMATRIX: Serotonin (5-Hydroxytryptamine) 5-HT2C radioligand binding (ligand: [3H] Mesulergine); type: cell membranes, CHO-K1, Membrane; settings: cho-k1; Not Active = under 50% inhibition at 10 µM
T1 sequence (P28335 whole entry): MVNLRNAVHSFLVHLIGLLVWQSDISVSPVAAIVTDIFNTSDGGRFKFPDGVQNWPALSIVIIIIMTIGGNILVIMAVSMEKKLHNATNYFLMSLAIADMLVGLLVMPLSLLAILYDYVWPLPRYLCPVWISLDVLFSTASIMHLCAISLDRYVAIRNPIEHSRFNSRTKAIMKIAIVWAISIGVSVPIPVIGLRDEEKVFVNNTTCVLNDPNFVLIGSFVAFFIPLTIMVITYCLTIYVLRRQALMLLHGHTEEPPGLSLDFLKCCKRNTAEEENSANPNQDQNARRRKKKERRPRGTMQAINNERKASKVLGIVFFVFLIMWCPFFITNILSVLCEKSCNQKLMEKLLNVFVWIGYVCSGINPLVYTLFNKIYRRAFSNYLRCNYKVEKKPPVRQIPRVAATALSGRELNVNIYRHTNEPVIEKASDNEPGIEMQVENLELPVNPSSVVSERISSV

[2] = molecular target: T2, Alpha-2A adrenergic receptor (Homo sapiens, UniProt P08913); type: cell membranes, Sf9, Membrane; settings: sf9; further: in other assays of this panel Not Active means under 50% inhibition at 10 µM
T2 sequence (P08913 whole entry): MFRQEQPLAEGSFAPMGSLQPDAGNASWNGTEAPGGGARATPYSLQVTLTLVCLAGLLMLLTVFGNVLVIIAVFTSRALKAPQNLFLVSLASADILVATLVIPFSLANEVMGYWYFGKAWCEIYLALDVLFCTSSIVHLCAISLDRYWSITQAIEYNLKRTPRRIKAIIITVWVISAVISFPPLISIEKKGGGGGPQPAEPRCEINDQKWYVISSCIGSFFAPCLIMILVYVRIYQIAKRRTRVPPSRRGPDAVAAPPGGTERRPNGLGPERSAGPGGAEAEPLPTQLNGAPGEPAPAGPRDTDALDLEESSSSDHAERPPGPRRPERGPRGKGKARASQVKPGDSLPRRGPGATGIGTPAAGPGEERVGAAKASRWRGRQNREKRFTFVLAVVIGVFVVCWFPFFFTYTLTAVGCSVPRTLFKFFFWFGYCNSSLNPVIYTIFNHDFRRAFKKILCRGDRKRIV

[3] = molecular target: T3, C-X-C chemokine receptor type 1 (Homo sapiens, UniProt P25024); further: in other assays of this panel Not Active means under 50% inhibition at 10 µM
T3 sequence (P25024 whole entry): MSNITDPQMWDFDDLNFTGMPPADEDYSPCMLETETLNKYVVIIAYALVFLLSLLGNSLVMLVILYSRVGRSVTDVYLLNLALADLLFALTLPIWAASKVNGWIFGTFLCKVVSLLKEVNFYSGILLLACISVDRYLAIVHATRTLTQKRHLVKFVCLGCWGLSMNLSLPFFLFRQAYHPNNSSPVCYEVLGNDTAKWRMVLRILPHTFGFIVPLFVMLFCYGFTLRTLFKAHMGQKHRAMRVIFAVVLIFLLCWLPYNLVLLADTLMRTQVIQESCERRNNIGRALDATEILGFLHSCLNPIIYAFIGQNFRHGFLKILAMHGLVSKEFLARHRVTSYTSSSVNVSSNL

[4] = molecular target: T4, C-X-C chemokine receptor type 2 (Homo sapiens, UniProt P25025); type: cell membranes, Membrane; settings: cho-k1; further: in other assays of this panel Not Active means under 50% inhibition at 10 µM
T4 sequence (P25025 whole entry): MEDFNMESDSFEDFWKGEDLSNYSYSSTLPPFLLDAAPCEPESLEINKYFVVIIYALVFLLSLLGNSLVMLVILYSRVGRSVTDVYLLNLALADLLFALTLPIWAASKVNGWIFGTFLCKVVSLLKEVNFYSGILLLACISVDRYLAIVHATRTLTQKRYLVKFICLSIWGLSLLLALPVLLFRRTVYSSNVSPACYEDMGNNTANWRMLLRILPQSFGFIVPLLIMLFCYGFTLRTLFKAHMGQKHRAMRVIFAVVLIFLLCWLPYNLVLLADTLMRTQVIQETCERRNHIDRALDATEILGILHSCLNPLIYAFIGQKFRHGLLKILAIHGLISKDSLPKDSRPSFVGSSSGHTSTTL

[5] = molecular target: T5, Cholecystokinin receptor type A (Homo sapiens, UniProt P32238); type: cell membranes, Membrane; settings: 1321-n1; further: in other assays of this panel Not Active means under 50% inhibition at 10 µM
T5 sequence (P32238 whole entry): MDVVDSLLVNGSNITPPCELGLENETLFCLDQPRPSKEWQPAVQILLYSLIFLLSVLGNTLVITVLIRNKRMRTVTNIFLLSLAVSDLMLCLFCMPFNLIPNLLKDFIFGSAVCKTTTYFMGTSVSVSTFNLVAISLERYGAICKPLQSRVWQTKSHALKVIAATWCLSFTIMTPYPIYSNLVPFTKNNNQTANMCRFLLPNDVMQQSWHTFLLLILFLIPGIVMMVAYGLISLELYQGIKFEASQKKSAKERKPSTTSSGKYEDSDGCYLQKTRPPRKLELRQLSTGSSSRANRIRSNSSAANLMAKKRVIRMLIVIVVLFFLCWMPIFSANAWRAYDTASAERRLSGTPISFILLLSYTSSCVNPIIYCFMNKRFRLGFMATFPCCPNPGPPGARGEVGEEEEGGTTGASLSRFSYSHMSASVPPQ

Measured: IC50

D(1A) dopamine receptor, sequence (P21728 whole entry): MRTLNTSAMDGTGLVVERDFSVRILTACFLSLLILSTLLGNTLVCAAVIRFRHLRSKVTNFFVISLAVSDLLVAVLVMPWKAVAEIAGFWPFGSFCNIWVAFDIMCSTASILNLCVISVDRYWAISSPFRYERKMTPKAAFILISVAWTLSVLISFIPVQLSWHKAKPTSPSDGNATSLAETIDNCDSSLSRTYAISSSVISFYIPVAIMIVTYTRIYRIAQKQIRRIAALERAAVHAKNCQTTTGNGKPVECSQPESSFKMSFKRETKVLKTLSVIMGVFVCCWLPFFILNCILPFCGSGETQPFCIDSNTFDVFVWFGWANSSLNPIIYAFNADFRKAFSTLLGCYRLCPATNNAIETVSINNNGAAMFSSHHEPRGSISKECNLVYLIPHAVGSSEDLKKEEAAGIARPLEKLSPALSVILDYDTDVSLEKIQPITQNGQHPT

NC[C@@H]1O[C@H](O[C@H]2[C@@H](O)[C@H](O[C@@H]3[C@@H](O)[C@H](N)C[C@H](N)[C@H]3O[C@H]3O[C@H](CN)[C@@H](O)[C@H](O)[C@H]3N)O[C@@H]2CO)[C@H](N)[C@@H](O)[C@@H]1O [FRAMYCETIN]
Not Active: all assays above

C[C@H]([C@](O)(Cn1cncn1)c1ccc(F)cc1F)S(C)(=O)=O [GENACONAZOLE]
Not Active: all assays above

Cc1cnc(C(=O)NCCc2ccc(S(=O)(=O)NC(=O)NC3CCCCC3)cc2)cn1 [GLIPIZIDE]
Not Active: all assays above

Cc1c(F)c(N2CCNC(C)C2)cc2c1c(=O)c(C(=O)O)cn2C1CC1 (stereo unspecified) [GREPAFLOXACIN]
Not Active: all assays above

COc1ccccc1OCC(O)CO (stereo unspecified) [GUAIFENESIN]
Not Active: all assays above

C[C@]12CCC(=O)C=C1CC[C@@H]1[C@@H]2[C@@H](O)C[C@@]2(C)[C@H]1CC[C@]2(O)C(=O)CO [HYDROCORTISONE]
Not Active: all assays above

C/C=C\c1ccc(O)c(OC)c1 [ISOEUGENOL]
Not Active: all assays above

NC[C@H]1O[C@H](O[C@H]2[C@H](O)[C@@H](O[C@H]3O[C@H](CO)[C@@H](O)[C@H](N)[C@H]3O)[C@H](N)C[C@@H]2N)[C@H](O)[C@@H](O)[C@@H]1O [KANAMYCIN]
Not Active: all assays above

CC[C@H](C)C(=O)O[C@H]1C[C@@H](C)C=C2C=C[C@H](C)[C@H](CC[C@@H]3C[C@@H](O)CC(=O)O3)[C@H]21 [LOVASTATIN]
Not Active: all assays above

CC(C(=O)O)c1ccc(CC2CCCC2=O)cc1 (stereo unspecified) [LOXOPROFEN]
Not Active: all assays above

Cc1cccc(Nc2ccccc2C(=O)O)c1C [MEFENAMIC ACID]
Not Active: all assays above

CC(=O)O[C@]1(C(C)=O)CC[C@H]2[C@@H]3C=C(C)C4=CC(=O)CC[C@]4(C)[C@H]3CC[C@@]21C [MEGESTROL ACETATE]
Not Active: all assays above

COc1ccccc1OCC(O)COC(N)=O (stereo unspecified) [METHOCARBAMOL]
Not Active: all assays above

CN(Cc1cnc2nc(N)nc(N)c2n1)c1ccc(C(=O)N[C@@H](CCC(=O)O)C(=O)O)cc1 [METHOTREXATE]
Not Active: all assays above

COC(=O)c1ccccc1O [METHYL SALICYLATE]
Not Active: all assays above

COc1ccc2cc(CCC(C)=O)ccc2c1 [NABUMETONE]
Not Active: all assays above
